# According to patent US20240423977A1, “FIVE-MEMBERED RING-FUSED SIX-MEMBERED RING COMPOUND, PREPARATION METHOD THEREFOR, AND PHARMACEUTICAL COMPOSITION AND USE THEREOF” (HANGZHOU POLYMED BIOPHARMACEUTICALS, INC., priority 2022, published 2024):
# pIC50: −log10 of the molar value.
# Columns and labels:
# [1] = target: IRAK4 protein in THP-1 cells (Homo sapiens (Human), UniProt Q9NWZ3); experiment: PROTAC-induced IRAK4 protein degradation in THP-1 cells (Western Blot); format: cell-based; conditions: concentration that degraded 50% of IRAK4, Western blotting, 24 hours after administration
# Chain of IRAK4 protein in THP-1 cells (Q9NWZ3 whole entry): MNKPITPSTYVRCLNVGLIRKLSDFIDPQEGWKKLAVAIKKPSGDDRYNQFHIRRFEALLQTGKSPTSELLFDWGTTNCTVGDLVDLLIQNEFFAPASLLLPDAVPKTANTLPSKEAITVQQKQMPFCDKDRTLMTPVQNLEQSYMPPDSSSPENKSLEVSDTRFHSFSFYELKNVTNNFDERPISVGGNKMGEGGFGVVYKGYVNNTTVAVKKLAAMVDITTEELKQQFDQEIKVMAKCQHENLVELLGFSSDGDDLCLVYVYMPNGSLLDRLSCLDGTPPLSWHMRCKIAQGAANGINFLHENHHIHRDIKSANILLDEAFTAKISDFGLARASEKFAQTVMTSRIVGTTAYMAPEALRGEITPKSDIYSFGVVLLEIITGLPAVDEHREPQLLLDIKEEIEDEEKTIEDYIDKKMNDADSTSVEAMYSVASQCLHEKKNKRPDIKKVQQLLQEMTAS
# Protocol: 2.1 Based on the experimental method of Western Blot, specific antibodies were used to stain the THP-1 cell samples treated by gel electrophoresis, and the degrading activity of the compounds on the IRAK4 protein in THP-1 cells was determined by analyzing the position and depth of staining. The concentrations of compound for the detection included 0 μM, 0.3 μM, 1 μM and 3 μM, and the cells were treated by the compound for 8 hours, 16 hours, 24 hours, and 48 hours. Glyceraldehyde-3-phosphate dehydrogenase (GAPDH) is an internal reference protein in this experiment.
# Electrophoresis buffer: 50 mL MOPS SDS Running Buffer (20×) and 50 mL 20×TBS Tween-20 buffer were diluted with deionized water to 1 L as the electrophoresis buffer;
# 5% skim milk (w/v): 2.5 g skim milk was diluted with 50 mL 1×TBS Tween-20 buffer to prepare 5% skim milk;
# 5% BSA (w/v): 2.5 g BSA was diluted with 50 mL 1×TBS Tween-20 buffer to prepare 5% BSA;
# Anti-IRAK4 antibody was diluted with 5% BSA at 1:1000 into a primary antibody working solution;
# Goat Anti-Rabbit IgG H&L (HRP) was diluted with 5% BSA at 1:2000 into a second antibody working solution; and
# Goat Anti-Mouse IgG H&L (HRP) was diluted with 5% BSA at 1:2000 into a second antibody working solution.
# THP-1 cells were plated in a 6-well plate at a density of 1.5×10^6 cells per ml and incubated for 2 hours in a cell culture incubator under 37° C. and 5% CO2. The compound was diluted with DMSO to 0.6 mM, 0.2 mM and 0.06 mM respectively. 10 μL of compound solution was added to the corresponding wells, and continued to incubate in the incubator for 16 hours, 24 hours and 48 hours respectively. The compound-treated THP-1 cells in the well were collected, added with 120 μL of RIPA lysate containing protease inhibitor, Phosphatase Inhibitor Cocktail 2 and Phosphatase Inhibitor Cocktail 3, lysed on wet ice for 30 minutes, and then the cells lysate was centrifuged at a high speed and a low temperature for 5 minutes to collect the supernatant. The protein concentration of the cell sample was determined according to the instructions in the Pierce™ BCA Protein Assay Kit.
# The concentration of the sample was adjusted to be consistent using lysis buffer and NuPAGE® LDS sample buffer containing 1M DTT. The samples were heated at 95° C. for 5 minutes and centrifuged at a low temperature and at a high speed. 20 μL of the prepared protein sample and 4 μL of PageRuler Prestained Protein Ladder were added into the gel well for running at 80V voltage for 0.5 hours, then the voltage was adjusted to 120V for further running for 1.5 hours. The gel was removed and the proteins in the gel were transferred to the IBlotTM 2 transfer membrane set at 20V. After successful transfer, bands at 65 kDa-40 kDa and 40 kDa-30 kDa were cut respectively. The membranes were blocked with 5% skim milk for 1 hour at room temperature. The membranes were washed three times with 1× concentration of TBST, then incubated with IRAK4 antibody working solution overnight at 4° C. The IRAK4 antibody working solution was discarded, and the membranes were washed three times with 1×concentration of TBST, and incubated with Goat Anti-Rabbit IgG H&L (HRP) working solution and Goat Anti-Mouse IgG H&L (HRP) working solution at room temperature. After 1 hour of incubation, the antibody working solution was discarded and the membranes were washed three times with 1× concentration of TBST. According to the instructions of the kit SuperSignal™ West Femto Maximum Sensitivity Substrate, the reagents in the kit were mixed in equal volume proportions to prepare a luminescent liquid mixture. The membranes were incubated for 1 minute, then removed for exposure.
# The results of Western blotting 24 hours after administration of the compounds with a concentration of 1 μM were shown in Table 3: […]
# [2] = target: kinase IRAK4 (Homo sapiens (Human), UniProt Q9NWZ3); experiment: Inhibitory effects of compounds on kinase activity (fluorescence microfluidic mobility detection, competitive with ATP); format: biochemical; conditions: Table 2; IRAK4 6 nM, ATP 10 μM, substrate FAM-P8 3 μM
# Chain of kinase IRAK4 (Q9NWZ3 whole entry): as above
# Protocol: Based on an experimental method of fluorescence microfluidic mobility detection, an IC50 value of competitive binding of kinase IRAK4 to ATP by the compounds was determined. The initial detection concentration of the compounds was 10 μM, diluted 4-fold gradient down to […], and tested in duplicate. Among them, commercial staurosporine was the standard control substance in this experiment.
# 1) IRAK4 kinase was dissolved in kinase buffer (50 mM HEPES pH 7.5, 10 mM MgCl2, 2 mM DTT and 0.01% Brij-35) to a final concentration of 6 nM.
# 2) The substrate peptide FAM-P8 and ATP were dissolved in the above kinase buffer. The final concentrations of the IRAK4 substrate peptide FAM-P8 and ATP were 3 μM and 10 μM respectively.
# 3) Dilution of the compounds: the compound was first diluted to 50 μM, and then diluted down with a 4-fold gradient of DMSO. The solution without the compound and kinase is used as a blank control, corresponding to the “minimum value” shown below; and the solution without the compound but with kinase, adenosine 5′-triphosphate disodium salt hydrate, DMSO and buffer is used as a positive control, corresponding to the “maximum value” shown below. 4) Kinase reaction and termination: 10 μL of kinase buffer was added to a 384-well plate containing 5 μL of the compound to be tested, and incubated at room temperature for 10 minutes. Another 10 μL of buffer containing the substrate peptide and adenosine 5′-triphosphate disodium salt hydrate was added to the 384-well plate. After incubation at 28° C. for one hour, 25 μL stop solution (100 mM HEPES pH 7.5, 50 mM EDTA, 0.2% Coating Reagent #3 and 0.015% Brij-35) was added to each well to terminate the reaction.
# 5) Data reading: the CaliperEZ Reader II instrument was used to read the conversion rate data. Conditions: downstream voltage −500V, upstream voltage −2250V, base pressure −0.5 PSI, and screening pressure −1.2 PSI.
# 6) Data calculation: the conversion rate data was copied from CaliperEZ Reader II and converted into inhibition rate data. The calculation formula is as follows:
# [formula] • IC50 values were fitted using XLFit excel add-in version 5.4.0.8,
# Y=Bottom+(Top−Bottom)/(1+(IC50/X)^HillSlope) Fitting formula: […]
smiles,measurement,setting,value
COc1cc2nn(C3CC4(CCN(c5cnn(C6CCN(c7ccc8c(c7)C(=O)N(C7CCC(=O)NC7=O)C8=O)CC6)c5)CC4)C3)cc2cc1NC(=O)c1cccc(C(F)(F)F)n1 (centres unmarked) [Compound I-32],DC50,[1],33.8 nM
same,pIC50,[2],7.46
COc1cc2nn(C3CC4(CCN(C(=O)C5(O)CCN(c6ccc7c(c6)C(=O)N(C6CCC(=O)NC6=O)C7=O)CC5)CC4)C3)cc2cc1NC(=O)c1cccc(C(F)(F)F)n1 (centres unmarked) [Compound I-33],DC50,[1],8.05 nM
same,pIC50,[2],7.58
COc1cc2nn(C3CC4(CCN(C(=O)C5(F)CCN(c6ccc7c(c6)C(=O)N(C6CCC(=O)NC6=O)C7=O)CC5)CC4)C3)cc2cc1NC(=O)c1cccc(C(F)(F)F)n1 (centres unmarked) [Compound I-34],DC50,[1],22.7 nM
same,pIC50,[2],7.40
COc1cc2nn(C3CC4(CCN(C(=O)C5CCN(c6ccc7c(c6)C(=O)N(C6CCC(=O)NC6=O)C7=O)CC5(F)F)CC4)C3)cc2cc1NC(=O)c1cccc(C(F)(F)F)n1 (centres unmarked) [Compound I-35],DC50,[1],7.86 nM
same,pIC50,[2],7.48
COc1cc2nn(C3CC4(CCN(C(=O)C5CCN(c6ccc7c(c6)C(=O)N(C6CCC(=O)NC6=O)C7=O)CC5)CC4)C3)cc2cc1NC(=O)c1coc(-c2ccnc(C)c2)n1 (centres unmarked) [Compound I-36],DC50,[1],1.16 nM
same,pIC50,[2],7.91
COc1cc2nn(C3CC4(CCN(C(=O)C5(C)CCN(c6ccc7c(c6)C(=O)N(C6CCC(=O)NC6=O)C7=O)CC5)CC4)C3)cc2cc1NC(=O)c1cccc(C(F)(F)F)n1 (centres unmarked) [Compound I-37],DC50,[1],20.7 nM
same,pIC50,[2],7.52
COc1cc2nn(C3CC4(CCN(C(=O)C5CCN(c6ccc7c(c6)C(=O)N(C6CCC(=O)NC6=O)C7=O)CC5)CC4)C3)cc2cc1NC(=O)c1cccc(C)n1 (centres unmarked) [Compound I-38],DC50,[1],2.61 nM
same,pIC50,[2],7.85
COc1cc2nn(C3CC4(CCN(C(=O)C5CCN(c6ccc7c(c6)C(=O)N(C6CCC(=O)NC6=O)C7=O)CC5)CC4)C3)cc2cc1NC(=O)c1cccc(N2CCOCC2)n1 (centres unmarked) [Compound I-41],DC50,[1],4.42 nM
same,pIC50,[2],7.30
COc1cc2nn(C3CC4(CCN(C(=O)C5CCN(c6ccc7c(c6)C(=O)N(C6CCC(=O)NC6=O)C7=O)CC5)CC4)C3)cc2cc1NC(=O)c1cccc(C(F)F)n1 (centres unmarked) [Compound I-42],DC50,[1],1.2 nM
same,pIC50,[2],7.99
COc1cc2nn(C3CC4(CCN(C(=O)C5CCN(c6ccc7c(c6)C(=O)N(c6ccc(=O)[nH]n6)C7=O)CC5)CC4)C3)cc2cc1NC(=O)c1cccc(C(F)(F)F)n1 [Compound I-43],DC50,[1],> 1000 nM
same,pIC50,[2],7.68
COc1cc2nn(C3CC4(CCN(C(=O)C5CCN(c6ccc7c(c6)C(=O)N(C6CCC(=O)NC6=O)C7=O)CC5)CC4)C3)cc2cc1NC(=O)c1cnn2ccc(N3C[C@H]4C[C@@H]3CO4)nc12 (some centres unmarked) [Compound I-44],DC50,[1],1.16 nM
same,pIC50,[2],7.77
COc1cc2nn(C3CC4(CCN(C(=O)C5CCN(c6cc7c(cc6F)C(=O)N(C6CCC(=O)NC6=O)C7=O)CC5)CC4)C3)cc2cc1NC(=O)c1cccc(N2CCOCC2)n1 (centres unmarked) [Compound I-46],DC50,[1],9.15 nM
same,pIC50,[2],7.75
COc1cc2nn(C3CC4(CCN(C(=O)C5CCN(c6ccc7c(c6)C(=O)N(C6CCC(=O)NC6=O)C7=O)CC5)CC4)C3)cc2cc1NC(=O)c1ccn(C(F)F)n1 (centres unmarked) [Compound I-47],DC50,[1],5.53 nM
same,pIC50,[2],8.04
O=C1CCC(N2C(=O)c3ccc(N4CCC(C(=O)N5CCC6(CC5)CC(n5cc7cc(NC(=O)c8cccc(C(F)(F)F)n8)c(C(=O)O)cc7n5)C6)CC4)cc3C2=O)C(=O)N1 (centres unmarked) [Compound I-48],DC50,[1],> 1000 nM
same,pIC50,[2],7.72
COc1cc2nn(C3CC4(CCN(C(=O)C5CCN(c6ccc7c(c6)C(=O)N(C6CCC(=O)NC6=O)C7=O)CC5)CC4)C3)cc2cc1NC(=O)c1cnn2ccc(N3CCN(C)CC3)nc12 (centres unmarked) [Compound I-49],DC50,[1],9.79 nM
same,pIC50,[2],7.87
COc1cc2nn(C3CC4(CCN(C(=O)C5(F)CCN(c6ccc7c(c6)C(=O)N(C6CCC(=O)NC6=O)C7=O)CC5)CC4)C3)cc2cc1NC(=O)c1cccc(N2CCOCC2)n1 (centres unmarked) [Compound I-50],DC50,[1],21.6 nM
same,pIC50,[2],7.15
COc1cc2nn(C3CC4(CCN(C5CCN(C(=O)c6ccc7c(c6)C(=O)N(C6CCC(=O)NC6=O)C7=O)CC5)CC4)C3)cc2cc1NC(=O)c1cccc(C(F)(F)F)n1 (centres unmarked) [Compound I-51],DC50,[1],149 nM
same,pIC50,[2],8.27
COc1cc2nn(C3CC4(CCN(C(=O)C5CCN(c6ccc7c(c6)C(=O)N(C6CCC(=O)NC6=O)C7=O)CC5)CC4)C3)cc2cc1NC(=O)c1cccc(N2CC3CC2CO3)n1 (centres unmarked) [Compound I-52],DC50,[1],3.9 nM
same,pIC50,[2],7.88
O=C1CCC(N2C(=O)c3ccc(N4CCC(C(=O)N5CCC6(CC5)CC(n5cc7cc(NC(=O)c8cccc(C(F)(F)F)n8)c(F)cc7n5)C6)CC4)cc3C2=O)C(=O)N1 (centres unmarked) [Compound I-53],DC50,[1],> 1000 nM
same,pIC50,[2],6.86
COc1cc2nn(C3CC4(CCN(C(=O)C5CCN(c6ccc7c(c6)C(=O)N(C6CCC(=O)NC6=O)C7=O)CC5)CC4)C3)cc2cc1NC(=O)c1coc(N2CCOCC2)n1 (centres unmarked) [Compound I-54],DC50,[1],6.2 nM
same,pIC50,[2],7.94
COc1cc2nn(C3CC4(CCN(C(=O)C5CCN(c6ccc7c(c6)C(=O)N(C6CCC(=O)NC6=O)C7=O)CC5(F)F)CC4)C3)cc2cc1NC(=O)c1cccc(N2CCOCC2)n1 (centres unmarked) [Compound I-55],DC50,[1],14.6 nM
same,pIC50,[2],7.46
COc1cc2nn(C3CC4(CCN(C(=O)C5CCN(c6ccc7c(c6)C(=O)N([C@H]6CCC(=O)NC6=O)C7=O)CC5)CC4)C3)cc2cc1NC(=O)c1cccc(C(F)(F)F)n1 [Compound I-57],DC50,[1],12.2 nM
same,pIC50,[2],7.49
COc1cc2nn(C3CC4(CCN(C(=O)C5CCN(c6ccc7c(c6)C(=O)N([C@@H]6CCC(=O)NC6=O)C7=O)CC5)CC4)C3)cc2cc1NC(=O)c1cccc(C(F)(F)F)n1 [Compound I-58],DC50,[1],2.67 nM
same,pIC50,[2],7.45
COc1cc2nn(C3CC4(CCN(C(=O)[C@H]5CC[C@H](Nc6ccc7c(c6)C(=O)N([C@H]6CCC(=O)NC6=O)C7=O)CC5)CC4)C3)cc2cc1NC(=O)c1cccc(C(F)(F)F)n1 [Compound I-59],DC50,[1],8.05 nM
same,pIC50,[2],7.56
COc1cc2nn(C3CC4(CCN(C(=O)[C@H]5CC[C@H](Nc6ccc7c(c6)C(=O)N([C@@H]6CCC(=O)NC6=O)C7=O)CC5)CC4)C3)cc2cc1NC(=O)c1cccc(C(F)(F)F)n1 [Compound I-60],DC50,[1],2.75 nM
same,pIC50,[2],7.39
